Test results reported in patent US20020005386A1, “Water based oil dispersant” (Polychemical Corporation, priority 1999, published 2002).

Key:
[1] = test system: Mysidopsis bahia; experiment: Dispersant toxicity testing, 48 hour LC50; details: in vivo
Description: Dispersant toxicity testing was performed by Coastal Bioanalysts.
This toxicity data was obtained using the concentrated product.

[2] = Surfactant screening test, visual emulsification of Prudhoe Bay Crude in river (sea) water; details: 1st set: pure surfactant, 10 ml added to 100 microliter PBC in 120 ml water; shaken 50 times, stand 10 min
Description: 120 ml of the river (sea) water is taken in a 130 ml bottle. Add 100 micro liter(μl) of Prudhoe Bay Crude to the bottle. Add […] of the pure test surfactant. The ratio of the surfactant to oil is 1:10, as per the spec. (the only difference is instead of 100 μl of the 1:10 mixture, the volume added was 110 μl) the mix was shaken vigorously 50 times and allowed to stand 10 min. to evaluate the effectiveness of the system and compare it to COREXIT 9500 at the same ratio.
The first set was with pure surfactants, the 2nd set was with two surfactants combination with 10 μl, in a 1:3 ratio and the 3rd was with a 3 or more surfactants system with 1:3 ratio but 10 μl, 20 μl, or 30 μl addition. The results are tabulated below:
10 μl added unless otherwise stated.
A combination of the above selected surfactants was conceived and formulations with the following variations were evaluated: […]

Compound | LC50 of the Control Toxicant, M. bahia [1] | APPEARANCE STABILITY OF EMULSION [2]
CCCCCCCCCCCCOS(=O)(=O)[O-].[Na+] [Dss] | The Control Toxicant (Dss): M. bahia 9.82 ppm | 
CCCCCCCC/C=C\CCCCCCCC(=O)OCC(O)CO (centres unmarked) [GMO, Glyceryl mono oleate] |  | Not good
